Experimental data reported in US5112739A, “Enzyme controlled release system” (Polaroid Corporation, priority 1988, dated 1992).

Legend:
Format in all cases: biochemical
[1] = target: β-galactosidase from e. coli (Escherichia coli, UniProt P00722); test: relative release rate of the leaving group on cleavage by β-galactosidase, spectrophotometric; details: for APPROXIMATE RELATIVE RATE (release of leaving group, compared with ONPG): 5 × 10^-5 M compound, pH7 tris buffer, 0.01 M NaCl, 0.01 M MgCl2, 25° C., 1.5 IU β-galactosidase, ONPG = 1.0; for release rate, comparison in words: same test as the relative rate table, β-galactosidase from e. coli
Sequence of β-galactosidase from e. coli (P00722 whole entry): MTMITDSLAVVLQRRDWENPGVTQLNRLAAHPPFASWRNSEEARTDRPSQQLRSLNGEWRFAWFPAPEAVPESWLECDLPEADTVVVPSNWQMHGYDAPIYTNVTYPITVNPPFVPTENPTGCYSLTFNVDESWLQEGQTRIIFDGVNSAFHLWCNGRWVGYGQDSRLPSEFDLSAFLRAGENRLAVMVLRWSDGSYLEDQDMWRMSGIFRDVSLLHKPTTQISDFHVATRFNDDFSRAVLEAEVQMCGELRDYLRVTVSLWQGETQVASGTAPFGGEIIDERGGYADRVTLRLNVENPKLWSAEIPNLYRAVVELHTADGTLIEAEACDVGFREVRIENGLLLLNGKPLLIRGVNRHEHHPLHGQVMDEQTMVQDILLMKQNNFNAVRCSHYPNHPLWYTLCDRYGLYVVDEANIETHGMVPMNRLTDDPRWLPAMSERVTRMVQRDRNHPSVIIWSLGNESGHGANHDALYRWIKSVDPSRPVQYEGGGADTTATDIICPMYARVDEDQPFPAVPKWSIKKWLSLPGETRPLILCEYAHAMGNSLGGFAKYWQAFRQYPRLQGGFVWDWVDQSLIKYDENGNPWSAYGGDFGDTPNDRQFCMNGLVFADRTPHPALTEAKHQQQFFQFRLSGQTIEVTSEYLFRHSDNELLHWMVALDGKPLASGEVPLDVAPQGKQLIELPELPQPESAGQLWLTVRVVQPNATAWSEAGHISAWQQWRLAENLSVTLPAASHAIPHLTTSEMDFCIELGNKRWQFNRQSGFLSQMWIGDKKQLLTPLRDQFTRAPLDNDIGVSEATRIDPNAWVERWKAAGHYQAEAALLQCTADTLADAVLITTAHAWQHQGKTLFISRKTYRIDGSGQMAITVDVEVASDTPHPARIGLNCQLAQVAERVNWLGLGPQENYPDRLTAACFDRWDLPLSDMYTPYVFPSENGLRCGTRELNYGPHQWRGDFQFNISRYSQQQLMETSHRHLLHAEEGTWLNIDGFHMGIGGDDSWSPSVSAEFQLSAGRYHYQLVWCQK
Method: The approximate relative release rates of the leaving groups of compounds according to the invention compared with that of o-nitrophenolgalactoside (ONPG) were measured according to the following procedure: a 5 × 10^-5 M solution of the compound was formed in pH7 tris(hydroxymethyl)aminomethane buffer which was 0.01 M in sodium chloride and 0.01 M in magnesium chloride at 25° C. The solution was placed in a 3 ml cuvette and 1.5 IU of β-galactosidase from e. coli introduced. The reaction mixture was monitored in a spectrophotometer at the appropriate wavelength.

[2] = system: β-galactosidase (e. coli); test: fluorescence rate of compound B as a function of β-galactosidase concentration (standard curve); details: 45 μl 0.614 mmolar compound + 5 μl enzyme, pH 7.6, ex 550 nm/em 580 nm, 0 and 2 minutes, average of two
[3] = system: anti α-TSH-β-galactosidase conjugate; test: release of dye from compound B by anti α-TSH-β-galactosidase conjugate, optical density and fluorescence; details: 100 μl of 0.3 mmolar mixture, pH 7.0 buffer, + 10 μl conjugate, 15 minutes at 37° C., enzyme 1.3 × 10^-12 molar
Method: A 0.3 :mmolar mixture of compound B in a pH 7.0 buffer (0.1 molar NaH2 PO 0.15 molar NaCl, 0.1% Zwittergent 3-14) was stirred at room temperature for 30 minutes and then filtered through a 0.22 μ filter element. The concentration of the compound was calculated by diluting the solution (1:10) to provide an optical density of between 0.39 and 0.41 at 470 nm (ε=20,000).
The solution (100 μl) was added to a microtiter plate well and the optical density was measured at 570 nm with an EIA Auto Reader, Model EL 310 from Bio Tek Instruments. The fluorescence of the same 100 μl volume of the solution was measured with a Titertek Fluoroska® from Flow Laboratories by exciting at 550 nm and reading at 580 nm.
To each of the 100 μl volumes of the solution there were added 10 μl of an anti α-TSH-β-galactosidase conjugate ([…] in β-galactosidase) and the mixtures were incubated for 15 minutes at 37° C. followed by measuring the optical density and fluorescence as described above.

| Structure (SMILES) | APPROXIMATE RELATIVE RATE (release of leaving group, compared with ONPG) [1] | release rate, comparison in words [1] | other results |
| --- | --- | --- | --- |
| O=C(c1cc(O[C@@H]2O[C@H](CO)[C@H](O)[C@H](O)[C@H]2O)c([N+](=O)[O-])cc1COc1ccc2nc3ccc(=O)cc-3oc2c1)N1CCOCC1 [D] | 0.02 | much slower release rate |  |
| O=c1ccc2nc3ccc(OCc4cc([N+](=O)[O-])ccc4O[C@@H]4O[C@H](CO)[C@H](O)[C@H](O)[C@H]4O)cc3oc-2c1 [C] | 0.005-0.05 | significantly different release rates |  |
| O=C(c1cc2ccc(OCc3ccc(O[C@@H]4O[C@H](CO)[C@H](O)[C@H](O)[C@H]4O)c([N+](=O)[O-])c3)cc2oc1=O)N1CCOCC1 [E] | 0.1-0.5 |  |  |
| O=[N+]([O-])c1ccccc1O[C@@H]1O[C@H](CO)[C@H](O)[C@H](O)[C@H]1O [ONPG, o-nitrophenolgalactoside, reference compound] | 1.0 |  |  |
| Cc1cc(=O)c(C(=O)N2CCOCC2)c2oc3c(C(=O)N4CCOCC4)c(OCc4ccc(O[C@@H]5O[C@H](CO)[C@H](O)[C@H](O)[C@H]5O)c([N+](=O)[O-])c4)cc(C)c3nc1-2 [B] | 0.3 |  | change in voltage/minute (fluorescence) ([2]; Enzyme Conc. 1 × 10^-11): 2.161 V/min; change in voltage/minute (fluorescence) ([2]; Enzyme Conc. 1 × 10^-12): 0.247 V/min; change in voltage/minute (fluorescence) ([2]; Enzyme Conc. 1 × 10^-13): 0.035 V/min; change in voltage/minute (fluorescence) ([2]; Enzyme Conc. 3 × 10^-12): 0.734 V/min; change in voltage/minute (fluorescence) ([2]; Enzyme Conc. 3 × 10^-13): 0.078 V/min; change in optical density ([3]; 570 nm): 0.0594; change in fluorescence ([3]; excitation 550 nm, reading 580 nm): 7266 mV |
| O=c1ccc2nc3ccc(OCc4ccc(O[C@@H]5O[C@H](CO)[C@H](O)[C@H](O)[C@H]5O)c([N+](=O)[O-])c4)cc3oc-2c1 [A] | 0.25 | significantly different release rates |  |
